# In patent publication US8912120B2, “Herbicidal compositions comprising 4-amino-3-chloro-5-fluoro-6-(4-chloro-2-fluoro-3-methoxyphenyl) pyridine-2-carboxylic acid or a derivative thereof and synthetic auxin herbicides” (Dow AgroSciences, LLC., priority 2012, dated 2014):
# Counter-ions that a name gives are not always drawn. Like-named read-outs stand apart in the source and are kept apart here.
# What was measured:
# [1] = system: ECHOR; assay: Example II: in-water applied herbicidal mixtures, transplanted paddy rice, ECHOR; type: in vivo, Echinochloa oryzoides (early watergrass)
# Protocol: (§1) The prepared mud was dispensed in 365 mL aliquots into 16-ounce (oz.) non-perforated plastic pots with a surface area of 86.59 square centimeters (cm^2) leaving a headspace of 3 centimeters (cm) in each pot Mud was allowed to dry overnight prior to planting or transplanting. Rice seeds were planted in Sun Gro MetroMix® 306 planting mixture, which typically has a pH of 6.0 to 6.8 and an organic matter content of about 30 percent, in plastic plug trays. Seedlings at the second or third leaf stage of growth were transplanted into 840 mL of mud contained in 32-oz. non-perforated plastic pots with a surface area of 86.59 cm^2 4 days prior to herbicide application. […] Nutrients were added as Osmocote® (19:6:12, N:P:K^+ minor nutrients) at 2 g per 16-oz. pot and 4 g per 32-oz. pot.
# (§2) Applications were made by injecting with a pipetter appropriate amounts of the application solutions, individually and sequentially, into the aqueous layer of the paddy. Control plants were treated in the same manner with the solvent blank. Applications were made so that all treated plant material received the same concentrations of acetone and crop oil concentrate.
# [2] = system: SIDSP; assay: Example V: postemergence herbicidal activity of mixtures in forage crops, SIDSP; type: in vivo, Sida spinosa (prickly sida); details: alone, 50 gae/ha, foliar, approximately 21 days
# Protocol: (§3) Seeds or root cuttings of the desired test plant species were planted in Sun Gro MetroMix® 306 planting mixture, which typically has a pH of 6.0 to 6.8 and an organic matter content of about 30 percent, in plastic pots with a surface area of 126.6 square centimeters (cm^2). […] The plants were grown for 14-60 days in a greenhouse with an approximate 14 hour photoperiod which was maintained at approximately 28° C. during the day and 24° C. during the night.
# (§4) Spray solutions of the second herbicide or experimental compound mixtures were prepared by adding the stock solutions to the appropriate amount of dilution solution to form 12 mL spray solution with active ingredients in two-way combinations.
# [3] = system: ECHCO; assay: Example I: postemergence foliar-applied herbicidal mixtures, direct seeded rice, ECHCO
# Protocol: (§6) The soil matrix was contained in plastic pots with a volume of 1 quart and a surface area of 83.6 square centimeters (cm^2). […] The plants were grown for 8-22 days in a greenhouse with an approximate 14 h photoperiod which was maintained at about 29° C. during the day and 26° C. during the night. Nutrients (Peters Excel® 15-5-15 5-Ca 2-Mg and iron chelate) were applied in the irrigation solution as needed and water was added on a regular basis. Supplemental lighting was provided with overhead metal halide 1000-Watt lamps as necessary. The plants were employed for testing when they reached the first through fourth true leaf stage.
# (§7) Treatments consisted of the acid or esters of 4-amino-3-chloro-5-fluoro-6-(4-chloro-2-fluoro-3-methoxy-phenyl)pyridine-2-carboxylic acid (Compound A), each formulated as an SC (suspension concentrate), and various herbicidal components alone and in combination. Forms of compound A were applied on an acid equivalent basis.
# (§8) For treatments comprised of formulated compounds, measured amounts of compounds were placed individually in 25 mL glass vials and diluted in a volume of 1.25% (v/v) Agri-Dex® crop oil concentrated to obtain 12× stock solutions. […] Application solutions were prepared by adding an appropriate amount of each stock solution (e.g., 1 mL) and diluted to the appropriate final concentrations with the addition of 10 mL of an aqueous mixture of 1.25% (v/v) crop oil concentrate so that the final spray solutions contained 1.25+/−0.05% (v/v) crop oil concentrate.
# (§9) All stock solutions and applications solutions were visually inspected for compound compatibility prior to application. Spray solutions were applied to the plant material with an overhead Mandel track sprayer equipped with a 8002E nozzles calibrated to deliver 187 L/ha over an application area of 0.503 m^2 at a spray height of 18 to 20 inches (46 to 50 cm) above average plant canopy height. Control plants were sprayed in the same manner with the solvent blank.
# (§10) The treated plants and control plants were placed in a greenhouse as described above and watered by sub-irrigation to prevent wash-off of the test compounds. After approximately 3 weeks, the condition of the test plants as compared with that of the untreated plants was determined visually and scored on a scale of 0 to 100 percent where 0 corresponds to no injury or growth inhibition and 100 corresponds to complete kill.
# (§11) Colby's equation was used to determine the herbicidal effects expected from the mixtures (Colby, S. R. 1967. Calculation of the synergistic and antagonistic response of herbicide combinations. Weeds 15:20-22).
# (§12) The following equation was used to calculate the expected activity of mixtures containing two active ingredients, A and B: Expected=A+B−(A×B/100)
# (§13) A=observed efficacy of active ingredient A at the same concentration as used in the mixture.
# (§14) B=observed efficacy of active ingredient B at the same concentration as used in the mixture.
# [4] = system: ECHCG; assay: Example II: in-water applied herbicidal mixtures, transplanted paddy rice, ECHCG; type: in vivo, Echinochloa crus-galli (barnyardgrass); details: for Visual Weed Control (%) - 21 DAA ECHCG Obs: in-water application
# Protocol: as §1, §2
# [5] = system: LEFCH; assay: Example I: postemergence foliar-applied herbicidal mixtures, direct seeded rice, LEFCH; type: in vivo, Leptochloa chinensis (Chinese sprangletop)
# Protocol: as §6, §7, §8, §9, §10, §11, §12, §13, §14
# [6] = system: SCPMA; assay: Example II: in-water applied herbicidal mixtures, transplanted paddy rice, SCPMA; type: in vivo; details: 21 DAA
# Protocol: as §1, §2
# [7] = system: SINAR; assay: Example V: postemergence herbicidal activity of mixtures in forage crops, SINAR; type: in vivo, Sinapis arvensis (wild mustard); details: alone, foliar, approximately 21 days
# Protocol: as §3, §4
# [8] = system: CASOB; assay: Example V: postemergence herbicidal activity of mixtures in forage crops (greenhouse), CASOB; type: in vivo, Cassia obtusifolia (sicklepod); details: alone, 50 gae/ha, foliar, approximately 21 days
# Protocol: as §3, §4
# [9] = system: CYPIR; assay: Example I: postemergence foliar-applied herbicidal mixtures, direct seeded rice, CYPIR; type: in vivo, Cyperus iria (rice flatsedge)
# [10] = system: LEFCH; assay: Example II: in-water applied herbicidal mixtures, transplanted paddy rice, LEFCH; type: in vivo, Leptochloa chinensis (Chinese sprangletop); details: for Visual Weed Control (%) Obs: 22 DAA; for Visual Weed Control (%) - 21 DAA LEFCH Obs: in-water application
# Protocol: as §1, §2
# [11] = system: SCPJU; assay: Example II: in-water applied herbicidal mixtures, transplanted paddy rice, SCPJU; type: in vivo, Schoenoplectus juncoides (Japanese bulrush); details: for Visual Weed Control (%) Obs: 22 DAA; for Visual Weed Control (%) - 21 DAA SCPJU Obs: in-water application
# Protocol: as §1, §2
# [12] = system: CYPRO; assay: Example II: in-water applied herbicidal mixtures, weed control in transplanted paddy rice (greenhouse), CYPRO; type: in vivo, Cyperus rotundus (purple nutsedge); details: for Visual Weed Control (%) Obs: 22 DAA
# Protocol: as §1, §2
# [13] = system: FIMMI; assay: Example II: in-water applied herbicidal mixtures, transplanted paddy rice, FIMMI; type: in vivo, Fimbristylis miliacea (globe fringerush); details: 22 DAA
# Protocol: as §1, §2
# [14] = system: ELEIN; assay: Example III: postemergence foliar-applied herbicidal mixtures, weeds common to row crops such as corn and soybeans (greenhouse), ELEIN; type: in vivo, Eleusine indica (goosegrass); details: 14 DAA
# Protocol: (§5) The plants were grown for 7-31 days (d) in a greenhouse with an approximate 15 hour (h) photoperiod which was maintained at about 23-29° C. during the day and 22-28° C. during the night.
# [15] = system: SONAR; assay: Example V: postemergence herbicidal activity of mixtures in forage crops, SONAR; type: in vivo, Sonchus arvensis (field sowthistle); details: alone, foliar, approximately 21 days
# Protocol: as §3, §4
# [16] = system: CENMA; assay: Example V: postemergence herbicidal activity of mixtures in forage crops, CENMA; type: in vivo, Centaurea maculosa (spotted knapweed); details: alone, foliar, approximately 21 days
# Protocol: as §3, §4
# [17] = system: PANDI; assay: Example III: postemergence foliar-applied herbicidal mixtures, row crop weeds, PANDI; type: in vivo, Panicum dichotomiflorum (fall panicum); details: 16 DAA
# Protocol: as §5
# [18] = system: PANMI; assay: Example III: postemergence foliar-applied herbicidal mixtures, row crop weeds, PANMI; type: in vivo, Panicum miliaceum (wild-proso millet); details: 16 DAA
# Protocol: as §5
# [19] = 280 gae/ha, in-water application
smiles,measurement,setting,value
"COc1c(Cl)ccc(Cl)c1C(=O)O [Dicamba DMA Salt, 3,6-dichloro-2-methoxybenzoic acid compound with N-methylmethanamine, reference compound]",pest or weed control at 140 g/ha,"[1]; Echinochloa oryzoides, 504 h, read-out: Visual Weed Control (%) Obs, 21 DAA, 140 gae/ha",10%
same,pest or weed control at 140 g/ha,"[1]; Echinochloa oryzoides, 504 h, read-out: Visual Weed Control (%) Obs, 21 DAA, 140 gai/ha",10%
same,pest or weed control at 280 g/ha,"[1]; Echinochloa oryzoides, 504 h, read-out: Visual Weed Control (%) Obs, 21 DAA, 280 gae/ha",15%
same,pest or weed control at 280 g/ha,"[1]; Echinochloa oryzoides, 504 h, read-out: Visual Weed Control (%) Obs, 21 DAA, 280 gai/ha",15%
same,SIDSP Obs (observed value),[2],25%
same,Visual Weed Control (%) - 20 DAA ECHCO Obs,[3]; 70 gae/ha,0%
same,Visual Weed Control (%) - 20 DAA ECHCO Obs,[3]; 140 gae/ha,0%
same,Visual Weed Control (%) - 20 DAA ECHCO Obs,[3]; 280 gae/ha,0%
same,Visual Weed Control (%) Obs,"[4]; 21 DAA, 140 gae/ha",0%
same,Visual Weed Control (%) Obs,"[4]; 21 DAA, 280 gae/ha",10%
same,Visual Weed Control (%) - 20 DAA LEFCH Obs,[5]; 140 gae/ha,0%
same,Visual Weed Control (%) - 20 DAA LEFCH Obs,[5]; 280 gae/ha,0%
same,Visual Weed Control (%) Obs,[6]; 140 gae/ha,0%
same,Visual Weed Control (%) Obs,[6]; 140 gai/ha,0%
same,Visual Weed Control (%) Obs,[6]; 280 gae/ha,0%
same,SINAR Obs (observed value),[7]; 50 gae/ha,65%
same,CASOB Obs (observed value),[8],20%
same,Visual Weed Control (%) - 20 DAA CYPIR Obs,[9]; 70 gae/ha,0%
same,Visual Weed Control (%) - 20 DAA CYPIR Obs,[9]; 140 gae/ha,0%
same,Visual Weed Control (%) - 20 DAA CYPIR Obs,[9]; 280 gae/ha,35%
"O=C(O)COc1nc(Cl)c(Cl)cc1Cl [Triclopyr Choline Salt, 2-hydroxy-N,N,N-trimethylethanaminium 2-((3,5,6-trichloropyridin-2-yl)oxy)acetate, reference compound]",pest or weed control at 70 g/ha,"[1]; Echinochloa oryzoides, 528 h, 22 DAA, 70 gae/ha, read-out: Visual Weed Control (%) Obs",10%
same,pest or weed control at 140 g/ha,"[1]; Echinochloa oryzoides, 528 h, 22 DAA, 140 gae/ha, read-out: Visual Weed Control (%) Obs",15%
same,Visual Weed Control (%) Obs,[10]; 70 gae/ha,0%
same,Visual Weed Control (%) Obs,[10]; 140 gae/ha,0%
same,Visual Weed Control (%) Obs,"[4]; 22 DAA, 70 gae/ha",15%
same,Visual Weed Control (%) Obs,"[4]; 22 DAA, 140 gae/ha",20%
same,Visual Weed Control (%) Obs,[11]; 70 gae/ha,15%
same,Visual Weed Control (%) Obs,[11]; 140 gae/ha,50%
same,Visual Weed Control (%) Obs,[12]; 70 gae/ha,0%
same,Visual Weed Control (%) Obs,[12]; 140 gae/ha,0%
same,Visual Weed Control (%) Obs,[13]; 70 gae/ha,15%
same,Visual Weed Control (%) Obs,[13]; 140 gae/ha,80%
"O=C(O)COc1ccc(Cl)cc1Cl [2,4-D DMA Salt, 2-(2,4-dichlorophenoxy)acetic acid with N-methylmethanamine, reference compound]",Visual Weed Control (%) - 21 DAA ECHOR Obs,[1]; [19],15%
same,Visual Weed Control (%) Obs,[14]; 52.5 gae/ha,0%
same,Visual Weed Control (%) Obs,[14]; 105 gae/ha,0%
same,Visual Weed Control (%) - 21 DAA LEFCH Obs,[10]; 140 gae/ha,0%
same,Visual Weed Control (%) - 21 DAA LEFCH Obs,[10]; 280 gae/ha,60%
same,Visual Weed Control (%) - 21 DAA ECHCG Obs,[4]; 140 gae/ha,0%
same,Visual Weed Control (%) - 21 DAA ECHCG Obs,[4]; 280 gae/ha,0%
same,SONAR Obs (observed value),[15]; 35 gae/ha,20%
same,SONAR Obs (observed value),[15]; 70 gae/ha,85%
same,CENMA Obs (observed value),[16]; 35 gae/ha,30%
same,CENMA Obs (observed value),[16]; 70 gae/ha,50%
same,SINAR Obs (observed value),[7]; 35 gae/ha,35%
same,SINAR Obs (observed value),[7]; 70 gae/ha,80%
same,Visual Weed Control (%) - 21 DAA SCPJU Obs,[11]; 140 gae/ha,0%
same,Visual Weed Control (%) - 21 DAA SCPJU Obs,[11]; 280 gae/ha,0%
same,Visual Weed Control (%) Obs,[17]; 105 gae/ha,0%
same,Visual Weed Control (%) Obs,[17]; 210 gae/ha,0%
same,Visual Weed Control (%) - 21 DAA CYPRO Obs,[12]; [19],0%
same,Visual Weed Control (%) Obs,[18]; 52.5 gae/ha,0%
same,Visual Weed Control (%) Obs,[18]; 105 gae/ha,10%
